Experimental data published in patent US20130137767A1, “Methods and Compositions for Treating Arthritis with Docosahexaenoic Acid” (DSM IP ASSETS B.V., priority 2010, published 2013).

Columns and labels:
Assay type in all cases: in vivo, Male DBA/1O1aHsd mice
[1] = test system: Collagen-Induced Arthritis (CIA); assay: Collagen-Induced Arthritis, ethyl esters (CIA-EE, Example 1): clinical arthritis severity and incidence; details: for arthritis severity score / arthritis severity score as area under the curve (AUC): days 18-45; for arthritis severity score as area under the curve (AUC): FIG. 2
Excerpt: The anti-arthritic activity of DHA, DPAn6, DHA/DPAn6 (DHA S-oil ratio) and DHA/EPA (fish oil ratio) ethyl esters (EE) in a chronic mouse model of inflammation, Collagen-Induced Arthritis (CIA), was studied.
(§1) Male DBA/1O1aHsd mice (3.5-4 weeks of age) were randomized by weight and enrolled in the study after a three day quarantine in which animals were fed the AlN-93G diet with a modified base fat: 1 part flax seed oil (flax), 9 parts hydrogenated coconut oil (HCOC) and 21 parts high-oleic safflower oil (HO-SAFF). 15 animals were enrolled per study group, with the exception of the No Disease control that had 4 animals. Study groups consisted of:
(§2) The appropriate ethyl esters were blended into the base diet to provide approximately 2500 and 5000 mg/kg polyunsaturated fatty acid (PUFA) per day. The human equivalent doses (HED) were approximately 12 g/day and 22 g/day, respectively. The 2500 mg/kg EE diets contained the following fat blend: 1 part flax, 12 parts HCOC and 23 parts HO-SAFF. The 5000 mg/kg EE diets contained a fat blend consisting of: 1 part flax, 5 parts HCOC and 20 parts HO-SAFF. All study diets provided a total of 7% fat. Animals were fed study diets for approximately 30 days prior to the first collagen injection at day 0 and remained on the diets until study termination (day 45). Animals in the No Disease control and Dexamethasone groups were fed the diet containing OA-EE. Following a second collagen injection on day 21, arthritis severity was scored daily. Blood samples were collected at day 21 and day 45. Joints, 6 per an animal, were collected for histology and pathology on day 45.
Data was analyzed and compared by one-way ANOVA using the Bonferroni post-test to compare treatment groups to respective placebo control and to make comparisons between treatment groups (GraphPad, Prism, Version 4.0). Effects were considered to be statistically significant at p<0.05.
Arthritis severity was assessed from day 18 to 45; a score of 0 represented an animal devoid of clinical arthritis symptoms and a score of 5 represented advanced clinical arthritis. Scores from 0-5 (most severe) were assigned to each digit on the fore and hind limbs based on erythema, swelling and mobility and the mean arthritis severity per animal was determined.
The incidence of disease was reduced in animals treated with DHA-EE (FIG. 3A/B). A clinical arthritis score greater than 0 was considered diseased. The incidence of disease at day 45 was 13% in animals treated with 2500 mg/kg DHA-EE, as compared to 100% disease incidence in OA-EE (placebo) control animals.

[2] = test system: Collagen-Induced Arthritis (CIA); assay: CIA-EE (Example 1): paw, knee and six-joint histopathology; details: day 45, vs OA-EE placebo, FIG. 4
Excerpt: as §1, §2
Placebo-treated diseased animals had histopathology changes, consistent with those seen in type II collagen induced arthritis, in most joints, with scores ranging from normal to severe. Microscopic alteration included infiltration of synovium and periarticular tissue with neutrophils and mononuclear inflammatory cells (inflammation), marginal zone pannus and bone resorption and cartilage damage (proteoglycan loss, chondrocyte death and collagen matrix destruction). Four-paw, knee and joint parameters were assigned a quantitative score 0=normal, 1=minimal, 2=mild, 3=moderate, 4=marked, 5=severe and a total score was determined per animal.

[3] = test system: Collagen-Induced Arthritis (CIA); assay: CIA EE vs. TG (Example 2): paw, knee and six-joint histopathology; details: day 45
Experimental: Male DBA/1O1aHsd mice were enrolled, quarantined, and feed study diets following the protocols described in Example 1 (CIA-EE Study). EE and TG oils were blended into the base diet to provide 2500 mg/kg PUFA per day (HED approximately 12 g/day). A single dose of PUFA per day (HED approximately 5 g/day). The 1000 mg/kg DHA-EE dose was equivalent to the amount of DHA administered in the DHA/EPA-EE blend. The fat blend the 2500 mg/kg EE diets consisted of approximately: 1 part flax, 12 parts HCOC and 23 parts HO-SAFF; 1000 mg/kg EE diet: 1 part flax, 12 parts HCOC and 32 parts HO-SAFF; 2500 mg/kg DHASCO® oil diet: 1 part flax, 8 parts HCOC, 17 parts HO-SAFF and 15 parts soybean oil; 2500 mg/kg DHA-S oil diet: 1 part flax, 5 parts HCOC, 16 parts HO-SAFF and 6 parts soybean oil. 2500 mg/kg DHA/EPA (Nordic Naturals fish oil) diet: 1 part flax, 21 parts HCOC, 18 parts HO-SAFF and 13 parts soybean oil. The monounsaturate control animals received a fat blend of 1 part flax, 7 parts HCOC and 25 parts HO-SAFF. All study diets provided a total of 7% fat. Animals in the No Disease control and Dexamethasone groups were fed the diet containing OA-EE. Mice received collagen injections on day 0 and day 21, as described previously. Blood samples were collected at day 21 and day 45. At day 45, joints were collected for histology and pathology. Placebo-treated diseased animals had histopathology changes, consistent with those seen in type II collagen induced arthritis, in most joints, with scores ranging from normal to severe. Microscopic alteration included infiltration of synovium and periarticular tissue with neutrophils and mononuclear inflammatory cells (inflammation), marginal zone pannus and bone resorption and cartilage damage (proteoglycan loss, chondrocyte death and collagen matrix destruction). Four-paw, knee and joint parameters were assigned a quantitative score 0=normal, 1=minimal, 2=mild, 3=moderate, 4=marked, 5=severe and a total score was determined per animal.

anti-collagen antibodies = assay: CIA-EE (Example 1): anti-collagen antibody production; details: measured day 21 and day 45, vs OA-EE placebo
Experimental: as §2
Anti-collagen antibody production was measured prior to the antigen challenge (day 21) and at study termination (day 45). […] Means (n=5)±SD. *p<0.05**p<0.01.

CC/C=C\C/C=C\C/C=C\C/C=C\C/C=C\C/C=C\CCC(=O)OCC [DHA-EE]
arthritis severity score ([1]; 2500 mg/kg in diet, FIG. 1A): reduced arthritis severity | arthritis severity score as area under the curve (AUC) ([1]; 2500 mg/kg, vs 2500 mg/kg OA-EE (placebo) control): significantly reduced arthritis severity | arthritis severity, comparison between treatment groups ([1]; 5000 mg/kg): more potent than DHA/EPA-EE | arthritis severity score ([1]; 5000 mg/kg in diet, FIG. 1B): reduced arthritis severity | arthritis severity score as area under the curve (AUC) ([1]; 5000 mg/kg, vs 5000 mg/kg OA-EE (placebo) control): significantly reduced arthritis severity | incidence of disease (clinical arthritis score greater than 0) ([1]; day 45, 2500 mg/kg, FIG. 3A): 13% | arthritis severity, comparison with dexamethasone ([1]; dose not stated in sentence (2500 and 5000 mg/kg tested), dexamethasone 0.1 mg/kg): as effective as dexamethasone | knee histopathology parameters ([2]; 2500 mg/kg): significantly reduced | paw histopathology parameters (inflammation, pannus, cartilage damage, bone damage) ([2]; 2500 mg/kg): significantly reduced | six-joint mean histopathology parameters ([2]; 2500 mg/kg): significantly reduced | paw histopathology parameters (inflammation, pannus, cartilage damage, bone damage) ([2]; 5000 mg/kg): reduced paw histopathology scores | six-joint mean histopathology parameters ([2]; 5000 mg/kg): significantly reduced | knee histopathology parameters ([3]; 1000 mg/kg): not significantly affected | paw histopathology parameters ([3]; 1000 mg/kg): not significantly affected | six-joint histopathology parameters ([3]; 1000 mg/kg): not significantly affected | six-joint histopathology parameters ([3]; 2500 mg/kg PUFA, FIG. 10): significantly reduced towards normal | paw histopathology parameters (inflammation, pannus, cartilage damage, bone damage) ([3]; 2500 mg/kg PUFA, vs placebo control, FIG. 10): reduced | level of plasma anti-collagen antibodies (anti-collagen antibodies; 2500 mg/kg): reduced the level of anti-collagen antibodies | level of plasma anti-collagen antibodies (anti-collagen antibodies; 5000 mg/kg): reduced the level of anti-collagen antibodies
